Assay [1] deals with PC3 cells. Description: mRNA level of HuR target Msi2 after docetaxel treatment. Format: cell-based. From the text:
FIGS. 1A-F provide the results of studies illustrating RNA-binding protein Hu antigen R (HuR) is involved in chemo/radiation-induced tumor response. […] HuR knock-down by siRNA sensitized cancer cells to X-ray radiation, with an enhancement ratio (ER) of 1.5 versus the negative control (NC) siRNA (FIG. 1F).

For assay [2], the system named is MDA-MB-231 mouse xenograft. Description: MDA-MB-231 mouse xenograft model, KH-39 alone and with docetaxel. Format: in vivo, mice. The following applies: after three-week treatment; KH-39 i.p. 50 mg/kg 5 times per week; TXT i.v.; ***P<0.001, ****P<0.0001, n=12. The text has this:
Cytotoxicity assays (as described earlier in this disclosure) for various cancer cell lines will also be performed utilizing concentrations of a compound of the present technology that are below the lethal threshold for the compound for the particular cancer (a “sub-lethal concentration”) in combination with a chemotherapeutic compound (e.g., docetaxel or doxorubicin) to illustrate compounds of the present technology sensitize cancer cell lines to chemotherapy. By way of illustration in an in vivo model, in vivo antitumor efficacy of KH-39 was examined in combination with docetaxel (a first-line chemotherapy for human breast cancer) in a MDA-MB-231 mouse xenograft model. For this, tumor-bearing female athymic mice were provided according to the protocols described earlier in the present disclosure and were randomized into four groups. One group of mice was treated with KH-39 (i.p. 50 mg/kg, 5 times per week), one group with docetaxel (TXT; i.v. at the dosages and time intervals indicated in FIG. 12), one group with a combination of KH-39 and TXT (KH-39 i.p. 50 mg/kg, 5 times per week and TXT i.v. at the dosages and time intervals indicated in FIG. 12), and one group of mice as the vehicle control. FIG. 12 illustrates the results, providing the tumor growth curves for each group.

The values that follow come from US20220213052A1, “INHIBITORS OF RNA-BINDING PROTEINS, COMPOSITIONS THEREOF, AND THERAPEUTIC USES THEROF” (The University of North Carolina at Chapel Hill, priority 2019, published 2022).

In the case of `CC(=O)O[C@@]12CO[C@@H]1C[C@H](O)[C@@]1(C)C(=O)[C@H](O)C3=C(C)[C@@H](OC(=O)[C@H](O)[C@@H](NC(=O)OC(C)(C)C)c4ccccc4)C[C@@](O)([C@@H](OC(=O)c4ccccc4)[C@H]21)C3(C)C` [docetaxel, reference compound], the “mRNA levels of HuR target Musashi 2 (Msi2)” value in assay [1] is “increased the mRNA levels of HuR target Musashi 2 (Msi2)”. Also, the “relative tumor sizes versus control group” value in assay [2] was “significantly smaller than those in control group”.
